PubChem BioAssay (NCI)
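Step 1: Grow cells in 96-well plates. Step 2: Expose to compound for 48 hours at 5 concentrations. Step 3: Interpolate endpoints linearly; if unreached, use highest concentration. TGI is the concentration that stops growth completely.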

What was measured:
Assay in all cases: inhibition of tumour cell growth, NCI panel, 48 h
[1] = tested on: NCI-H522 lung
[2] = tested on: SK-MEL-5 melanoma
[3] = tested on: SN12C renal
[4] = tested on: NCI-H460 lung
[5] = tested on: A549 NSCLC
[6] = tested on: TK-10 renal
[7] = tested on: KM20L2 colon
[8] = tested on: HOP-92 NSCLC
[9] = tested on: SNB-19 CNS
[10] = tested on: HT29 colon
[11] = tested on: UO-31 renal
[12] = tested on: M19-MEL melanoma
[13] = tested on: OVCAR-4 ovarian
[14] = tested on: SK-OV-3 ovarian
[15] = tested on: SNB-75 CNS
[16] = tested on: M14 melanoma
[17] = tested on: OVCAR-3 ovarian
[18] = tested on: SF-295 CNS
[19] = tested on: NCI-H23 lung
[20] = tested on: SK-MEL-2 melanoma
[21] = tested on: MOLT-4 leukemia
[22] = tested on: EKVX NSCLC
[23] = tested on: COLO 205 colon
[24] = tested on: RPMI-8226 leukemia
[25] = tested on: OVCAR-5 ovarian
[26] = tested on: SW-620 colon
[27] = tested on: MALME-3M melanoma
[28] = tested on: HCT-15 colon
[29] = tested on: ACHN renal
[30] = tested on: HCC-2998 colon
[31] = tested on: UACC-257 melanoma
[32] = tested on: HOP-62 NSCLC
[33] = tested on: DLD-1 colon
[34] = tested on: A498 renal
[35] = tested on: KM12 colon
[36] = tested on: OVCAR-8 ovarian
[37] = tested on: 786-0 renal
[38] = tested on: SF-268 CNS
[39] = tested on: DMS 273 small cell lung
[40] = tested on: U251 CNS
[41] = tested on: K-562 leukemia
[42] = tested on: SK-MEL-28 melanoma
[43] = tested on: IGROV1 ovarian
[44] = tested on: HCT-116 colon
[45] = tested on: UACC-62 melanoma
[46] = tested on: CCRF-CEM leukemia
[47] = tested on: LXFL 529 NSCLC
[48] = tested on: LOX IMVI melanoma
[49] = tested on: SF-539 CNS
[50] = tested on: HL-60(TB) leukemia
[51] = tested on: NCI-H226 lung
[52] = tested on: RXF 393 renal
[53] = tested on: CAKI-1 renal
[54] = tested on: SNB-78 CNS
[55] = tested on: DMS 114 small cell lung
[56] = tested on: SR leukemia

SMILES: Cc1cc2c(=O)cc(-c3cccs3)oc2c(C(=O)O)c1C
- TGI [1]: 48.4 µM
- TGI [2]: > 100 µM
- TGI [3]: > 100 µM
- TGI [4]: > 100 µM
- TGI [5]: > 100 µM
- TGI [6]: > 100 µM
- TGI [7]: > 100 µM
- TGI [8]: > 100 µM
- TGI [9]: > 100 µM
- TGI [10]: > 100 µM
- TGI [11]: > 100 µM
- TGI [12]: > 100 µM
- TGI [13]: > 100 µM
- TGI [14]: > 100 µM
- TGI [15]: 37.6 µM
- TGI [16]: > 100 µM
- TGI [17]: > 100 µM
- TGI [18]: > 100 µM
- TGI [19]: > 100 µM
- TGI [20]: > 100 µM
- TGI [21]: > 100 µM
- TGI [22]: > 100 µM
- TGI [23]: > 100 µM
- TGI [24]: > 100 µM
- TGI [25]: > 100 µM
- TGI [26]: > 100 µM
- TGI [27]: > 100 µM
- TGI [28]: > 100 µM
- TGI [29]: > 100 µM
- TGI [30]: > 100 µM
- TGI [31]: > 100 µM
- TGI [32]: > 100 µM
- TGI [33]: > 100 µM
- TGI [34]: > 100 µM
- TGI [35]: > 100 µM
- TGI [36]: > 100 µM
- TGI [37]: > 100 µM
- TGI [38]: > 100 µM
- TGI [39]: > 100 µM
- TGI [40]: > 100 µM
- TGI [41]: > 100 µM
- TGI [42]: > 100 µM
- TGI [43]: > 100 µM
- TGI [44]: > 100 µM
- TGI [45]: > 100 µM
- TGI [46]: > 100 µM
- TGI [47]: > 100 µM
- TGI [48]: > 100 µM

SMILES: Cc1nc(-c2nc(C)c(C(=O)/C=C/c3ccc([N+](=O)[O-])cc3)s2)sc1C(=O)/C=C/c1ccc([N+](=O)[O-])cc1
- TGI [2]: > 100 µM
- TGI [3]: > 100 µM
- TGI [49]: > 100 µM
- TGI [4]: > 100 µM
- TGI [5]: > 100 µM
- TGI [6]: > 100 µM
- TGI [7]: > 100 µM
- TGI [8]: > 100 µM
- TGI [9]: > 100 µM
- TGI [10]: > 100 µM
- TGI [11]: > 100 µM
- TGI [50]: > 100 µM
- TGI [12]: > 100 µM
- TGI [14]: > 100 µM
- TGI [15]: > 100 µM
- TGI [16]: > 100 µM
- TGI [17]: > 100 µM
- TGI [18]: > 100 µM
- TGI [19]: > 100 µM
- TGI [20]: > 100 µM
- TGI [21]: > 100 µM
- TGI [22]: > 100 µM
- TGI [23]: > 100 µM
- TGI [24]: > 100 µM
- TGI [51]: > 100 µM
- TGI [25]: > 100 µM
- TGI [26]: > 100 µM
- TGI [27]: > 100 µM
- TGI [52]: > 100 µM
- TGI [28]: > 100 µM
- TGI [53]: > 100 µM
- TGI [29]: > 100 µM
- TGI [30]: > 100 µM
- TGI [31]: > 100 µM
- TGI [32]: > 100 µM
- TGI [33]: > 100 µM
- TGI [34]: > 100 µM
- TGI [35]: > 100 µM
- TGI [36]: > 100 µM
- TGI [54]: > 100 µM
- TGI [55]: > 100 µM
- TGI [37]: > 100 µM
- TGI [38]: > 100 µM
- TGI [40]: > 100 µM
- TGI [41]: > 100 µM
- TGI [42]: > 100 µM
- TGI [43]: > 100 µM
- TGI [44]: > 100 µM
- TGI [45]: > 100 µM
- TGI [47]: > 100 µM
- TGI [48]: > 100 µM

SMILES: COc1ccc2c(c1)OCCCN(C)OC2c1ccccc1 (centres undefined)
- TGI [2]: > 100 µM
- TGI [3]: > 100 µM
- TGI [49]: > 100 µM
- TGI [5]: > 100 µM
- TGI [6]: > 100 µM
- TGI [7]: > 100 µM
- TGI [9]: > 100 µM
- TGI [10]: > 100 µM
- TGI [11]: > 100 µM
- TGI [12]: > 100 µM
- TGI [14]: > 100 µM
- TGI [15]: > 100 µM
- TGI [17]: > 100 µM
- TGI [18]: > 100 µM
- TGI [19]: > 100 µM
- TGI [20]: > 100 µM
- TGI [21]: > 100 µM
- TGI [22]: > 100 µM
- TGI [23]: > 100 µM
- TGI [24]: > 100 µM
- TGI [56]: > 100 µM
- TGI [51]: > 100 µM
- TGI [25]: > 100 µM
- TGI [26]: > 100 µM
- TGI [27]: > 100 µM
- TGI [52]: > 100 µM
- TGI [28]: > 100 µM
- TGI [53]: > 100 µM
- TGI [29]: > 100 µM
- TGI [30]: > 100 µM
- TGI [31]: > 100 µM
- TGI [35]: > 100 µM
- TGI [36]: > 100 µM
- TGI [54]: > 100 µM
- TGI [55]: > 100 µM
- TGI [37]: > 100 µM
- TGI [38]: > 100 µM
- TGI [39]: > 100 µM
- TGI [40]: > 100 µM
- TGI [41]: > 100 µM
- TGI [42]: > 100 µM
- TGI [43]: > 100 µM
- TGI [44]: > 100 µM
- TGI [45]: > 100 µM
- TGI [47]: > 100 µM
